Measurements published in US20040265915A1, “Method to identify regulators of cellular activation using Bcl10” (priority 2003, published 2004).

Assays:
[1] = molecular target: T1, PKCθ-CFP (Mus musculus, UniProt Q02111); test: PKCθ-CFP translocation in D10 T cells, fluorescence microscopy; assay type: cell-based, murine
T1 construct: expressed in transfected cells; host or cells: D10 murine CD4+ T cell clone, infected with pEneo retrovirus
Protocol: (§1) Murine PKCθ was fused to a C-terminal linker (GRVELGR; SEQ ID NO:7) followed by GFP or CFP (19), modified by mutations that improve folding at 37° C. (20). Two I.M.A.G.E. expressed sequence tag (EST) clones encoding murine Bcl10 were purchased (2123397 and 3026026; ResGen). Clone 3026026 was used for PCR amplification of Bc 10, adding the C-terminal linker GR, which was then fused to the previously described modified YFP gene (17). The PKCθ-CFP and Bcl10-YFP gene fusions were cloned into the retroviral vectors pEneo and pEhyg (21), respectively. Retroviral infection and cell line production were as described (17).
(§2) To circumvent the problem that many cytoskeletal inhibitors also impair T cell/APC conjugate formation, D10 T cells were activated with phorbol ester (PMA), a stimulator of PKC. Specifically, in these experiments, D10 T cells infected with retroviruses encoding PKCθ-CFP and Bcl10-YFP received no pre-treatment, 2 hr pretreatment with 10 μg/ml nocodazole, or 1 hr pretreatment with 2 μg/ml latrunculin A. Cells then received either no treatment or were incubated for 20 min with 10 ng/ml PMA.
(§3) CH12 B cells that had been pre-incubated with no antigen or with 250 μg/ml conalbumin protein were then added. Cells were fixed after 30 min and examined by fluorescence microscopy. […]

[2] = system: Bcl10-YFP POLKADOTS formation; test: Bcl10-YFP POLKADOTS formation in PMA-stimulated D10 T cells with cytoskeletal inhibitors; assay type: cell-based, murine; conditions: data not shown
Protocol: as §2

[3] = system: microtubules; test: Microtubule integrity (tubulin distribution) in PMA-stimulated D10 T cells; assay type: cell-based, murine; conditions: 2 hr pretreatment with 10 μg/ml nocodazole, then 10 ng/ml PMA 20 min
Protocol: as §2

[4] = system: Bcl10-YFP POLKADOTS formation; test: Bcl10-YFP POLKADOTS formation in antigen-stimulated D10 T cells, fluorescence microscopy; assay type: cell-based, murine; conditions: bisindo 2 μM, stauro 100 nM; for Bcl10-YFP POLKADOTS formation: D10 T cells expressing Bcl10-YFP, conalbumin-loaded CH12 B cells (100 μg/ml), 30 min pre-treatment, fixed after 20 min, FIG. 4; for Bcl10 POLKADOTS formation: D10 T cells expressing PKCθ-CFP and Bcl10-YFP, CH12 B cells with 250 μg/ml conalbumin, 30 min pretreatment, fixed after 30 min, FIG. 5
Protocol: (§4) D10-IL2 (henceforth referred to as D10) is an IL-2 dependent subclone of the CD4^+ T cell clone D10 (16), maintained as described (17). Primary T cell blasts were prepared by stimulation of spleen and lymph node cells with 100 μg/ml plate-bound anti-TCRP for 48 hr, with IL-2 added for the final 24 hr of stimulation. CH12H-2^k B cells and CHb H-2^b B cells (18) were maintained as described previously (17).
as §1
Fluorescent and Nomarski images were acquired on an Olympus IX70 inverted microscope (Olympus America, Inc.) or a Zeiss Axiovert 200M inverted microscope (Carl Zeiss, Inc.) using a 100× plan-apochromat oil objective. The microscope was controlled by a TILLvisTRAC imaging system, driven by TILLvisION 4.0 software (TILL Photonics, GmbH). Excitation light was provided by a Polychrome IV monochromator (TILL Photonics, GmbH). Dichroic mirrors and excitation filters appropriate for each fluorophore were purchased from Chroma.
For fixed cell imaging, T cell conjugates were formed, mounted on coverslips, paraformaldehyde fixed, and stained with fluorophore-conjugated antibodies (Molecular Probes, Inc.) as described previously (16). For each fluorescent wavelength, z-stacks of 50 xy-planes separated by 0.3 μm were acquired, and stacks were digitally deconvolved using a constrained-iterative algorithm. TILLvisION software was used to convert z-stacks into xy projection images, by retaining only the maximal pixel value for each xy coordinate across the z-dimension.
The inventors next examined whether formation of Bcl10 POLKADOTS is PKC-dependent (FIG. 4 and FIG. 5). D10 T cells expressing Bcl10-YFP were incubated with CH12 B cells with no antigen, or with conalbumin-loaded CH12 B cells (100 μg/ml conalbumin). […] Cells were fixed after 20 minutes and examined by fluorescence microscopy. For each group, >200 T cells were counted, and percentages with and without POLKADOTS were determined.
as §3

[5] = system: NF-κB activation (phosphorylation of IκBα); test: NF-κB activation assessed by phosphorylation of IκBα in anti-TCR stimulated D10 T cells; assay type: cell-based, murine; conditions: anti-TCR stimulation, 30 min pre-treatment with 2 μM, data not shown
Protocol: T cells were stimulated with 100 μg/ml plate-bound anti-TCRP. Cell lysates were prepared on ice using 1× Laemmli buffer, followed by sonication. For immunoprecipitations, 5×10^6 cells were lysed for 1 hr on ice in 360 μL of a buffer consisting of 0.5% NP40, 0.5% deoxcholate, 20 mM Tris, pH 7.6, 250 mM NaCl, 3 mM EDTA, 3 mM EGTA, 1 mM PMSF, 20 μg/ml aprotinin, 100 μg/ml leupeptin, 1 mM Na3VO4, 10 mM NaF, and 1 mM DTT. Nuclei were removed by centrifugation, and lysates were incubated with polyclonal rabbit anti-Bcl10 antibody (Santa Cruz Biotechnology) for 2-3 hr at 4° C. and then for 1 hr at 4° C. with Protein A sepharose. Lysates and immunoprecipitates were separated by SDS-PAGE and blotted onto nitrocellulose. Proteins were detected by monoclonal antibodies against Bcl10 (Santa Cruz Biotechnology), and PKCθ (BD/Translabs), and polyclonal antibodies against phospho-IκBα anti-phospho-PKCθ/Thr538 (Cell Signaling Technologies), and actin (Santa Cruz Biotechnology). For phosphatase treatment, immunoprecipitates were incubated for 45 min at 30° C. with 400 U of λ-phosphatase (New England Biolabs), according to the instructions of the manufacturer. […]

[6] = system: Bcl10-YFP phosphorylation; test: Western blot of TCR-dependent Bcl10-YFP phosphorylation in D10 T cells; assay type: cell-based, murine; conditions: anti-TCR stimulation, 30 min pre-treatment with 2 μM, data not shown
Protocol: T cells were stimulated with 100 μg/ml plate-bound anti-TCRP. Cell lysates were prepared on ice using 1× Laemmli buffer, followed by sonication. For immunoprecipitations, 5×10^6 cells were lysed for 1 hr on ice in 360 μL of a buffer consisting of 0.5% NP40, 0.5% deoxcholate, 20 mM Tris, pH 7.6, 250 mM NaCl, 3 mM EDTA, 3 mM EGTA, 1 mM PMSF, 20 μg/ml aprotinin, 100 μg/ml leupeptin, 1 mM Na3VO4, 10 mM NaF, and 1 mM DTT. Nuclei were removed by centrifugation, and lysates were incubated with polyclonal rabbit anti-Bcl10 antibody (Santa Cruz Biotechnology) for 2-3 hr at 4° C. and then for 1 hr at 4° C. with Protein A sepharose. Lysates and immunoprecipitates were separated by SDS-PAGE and blotted onto nitrocellulose. Proteins were detected by monoclonal antibodies against Bcl10 (Santa Cruz Biotechnology), and PKCθ (BD/Translabs), and polyclonal antibodies against phospho-IκBα anti-phospho-PKCθ/Thr538 (Cell Signaling Technologies), and actin (Santa Cruz Biotechnology). For phosphatase treatment, immunoprecipitates were incubated for 45 min at 30° C. with 400 U of λ-phosphatase (New England Biolabs), according to the instructions of the manufacturer.
The inventors next investigated whether Bcl10 redistribution reflects biochemical modification of Bcl10. […]

[7] = system: ERK MAP kinases; test: Activation of ERK MAP kinases in anti-TCR stimulated D10 T cells; assay type: cell-based, murine; conditions: anti-TCR stimulation, 30 min pre-treatment with 2 μM
[8] = system: Bcl10; test: Endogenous Bcl10 enrichment at the T cell/APC interface in OTII T cell blasts, immunofluorescence microscopy; assay type: cell-based, mice; conditions: 45 min with CHb APC loaded with 10 μg/ml OVA 323-339, FIG. 1B
Protocol: as §4
For fixed cell imaging, T cell conjugates were formed, mounted on coverslips, paraformaldehyde fixed, and stained with fluorophore-conjugated antibodies (Molecular Probes, Inc.) as described previously (16). […]
The inventors sought to establish whether Bcl10, like PKCθ, might be recruited to the c-SMAC in response to specific antigen-loaded APC. […] T cell/APC conjugates were detected by immunofluorescence microscopy, using monoclonal antibodies directed against Bcl10, PKCθ and CD4 (FIG. 1A). […]
In contrast, in T cells stimulated by specific antigen-loaded CHb APC, PKCθ became enriched at the region of contact between the T cell and the APC. […] The mean maximal anti-Bcl10 fluorescence intensity of the enriched regions of the antigen-stimulated T cells was 7-fold higher than the maximal T cell anti-Bcl10 fluorescence of the no antigen controls (FIG. 1B; error bars representing SEM).

T1 sequence (Q02111 whole entry): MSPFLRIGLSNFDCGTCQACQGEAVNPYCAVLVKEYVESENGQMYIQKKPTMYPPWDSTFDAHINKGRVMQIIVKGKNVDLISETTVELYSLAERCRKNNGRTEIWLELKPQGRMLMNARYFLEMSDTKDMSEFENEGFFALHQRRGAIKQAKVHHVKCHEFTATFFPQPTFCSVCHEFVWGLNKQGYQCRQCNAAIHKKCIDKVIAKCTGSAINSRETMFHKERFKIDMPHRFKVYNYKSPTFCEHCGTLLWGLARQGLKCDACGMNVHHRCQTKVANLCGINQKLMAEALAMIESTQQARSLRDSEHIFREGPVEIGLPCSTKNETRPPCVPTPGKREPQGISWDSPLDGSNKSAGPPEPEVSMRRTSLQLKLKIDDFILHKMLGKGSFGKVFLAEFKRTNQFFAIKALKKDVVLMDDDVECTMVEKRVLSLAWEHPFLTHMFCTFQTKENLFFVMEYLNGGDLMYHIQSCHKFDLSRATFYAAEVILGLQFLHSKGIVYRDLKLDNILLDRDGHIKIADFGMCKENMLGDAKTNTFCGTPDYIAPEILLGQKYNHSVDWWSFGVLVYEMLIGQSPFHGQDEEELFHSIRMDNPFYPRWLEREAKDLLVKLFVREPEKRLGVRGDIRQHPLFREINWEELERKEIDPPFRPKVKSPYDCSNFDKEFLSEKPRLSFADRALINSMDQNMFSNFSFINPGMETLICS

Question: What does the source list for `CCCCCCCCCCCCCC(=O)O[C@@H]1[C@@H](C)[C@@]2(O)[C@@H](C=C(CO)C[C@]3(O)C(=O)C(C)=C[C@@H]23)[C@@H]2C(C)(C)[C@]12OC(C)=O` [PMA]?
Answer: PKCθ-CFP translocation on PMA stimulation ([1]; 10 ng/ml PMA for 20 min, data not shown): translocation of PKCθ-CFP to the cell membrane; Bcl10-YFP POLKADOTS on PMA stimulation ([2]; D10 T cells expressing PKCθ-CFP and Bcl10-YFP, 10 ng/ml PMA for 20 min): formation of Bcl10-YFP POLKADOTS

Question: Which “levels of Bcl10-YFP POLKADOTS after cytoskeletal inhibitor pretreatment” value ([2]; 1 hr pretreatment with 2 μg/ml latrunculin A, then 10 ng/ml PMA 20 min) does the source give for `C/C1=C/C(=O)O[C@@H]2C[C@@H](CC[C@H](C)/C=C\C=C\CC1)O[C@@](O)([C@@H]1CSC(=O)N1)C2` [latrunculin A] here?
Answer: did not appear to have reduced levels

Question: For `COC(=O)Nc1nc2ccc(C(=O)c3cccs3)cc2[nH]1` [nocodazole], which “microtubules (distribution of tubulin)” value [3] is on record?
Answer: disrupted

Question: Which “Bcl10-YFP POLKADOTS formation” value [4] does the source give for `CN[C@@H]1C[C@H]2O[C@@](C)([C@@H]1OC)n1c3ccccc3c3c4c(c5c6ccccc6n2c5c31)C(=O)NC4` [stauro, staurosporine] here?
Answer: blocked

Question: And the “Bcl10 POLKADOTS formation” value [4]?
Answer: blocked

Question: How did the “PKCθ translocation in presence of PKC inhibitors” value ([1]; CH12 B cells with 250 μg/ml conalbumin, 30 min pretreatment, bisindo 2 μM, stauro 100 nM, FIG. 5) turn out when bisindolylmaleimide was run?
Answer: occurs

Question: What about the “activation of NF-κB (phosphorylation of IκBα)” value [5] of the same molecule?
Answer: blocked

Question: And the “Bcl10-YFP POLKADOTS formation” value [4]?
Answer: blocked

Question: What about the “Bcl10 POLKADOTS formation” value [4] of the same molecule?
Answer: blocked

Question: And the “formation of phosphorylated Bcl10-YFP” value [6]?
Answer: completely blocked

Question: What about the “activation of the ERK MAP kinases” value [7] of the same molecule?
Answer: partially inhibited

Question: “ovalbumin: ovalbumin peptide OVA 323-339 bound to IA^b, antigen for OTII T cells (KISQAVHAAHAEINEAG; UniProt P01012 323-339, looked up, fragment)” was tested. Which “mean maximal anti-Bcl10 fluorescence intensity of enriched regions relative to no antigen controls” value [8] did it give?
Answer: 7 fold
